Structures can show the parent of a compound that is named as a salt.
Molecular target: human recombinant ATX (Homo sapiens (Human), UniProt Q13822)
Experiment: Autotaxin (ATX) activity Quanta Red assay
Format: biochemical
Conditions: 15 μM Rac-1-Palmitoyl-glycero-3-phosphocholine, 2 hours room temperature, determined in duplicate
Method: The ATX enzyme assay (Quanta Red assay) described in accompanying Example section may be used to measure the pharmacological effects of the compounds of the present invention.
Autotaxin (ATX) Activity Quanta Red Assay
Measuring ATX activity using an enzyme coupled Quanta Red assay (Thermo Scientific—Pierce Protein Research Products, Product #15159) was determined as follows. 8 μL human recombinant ATX (final concentration 0.8 μg/mL) in 1× Assay buffer containing 50 mM Tris-HCl (pH 8.0), 5 mM CaCl2 was added to an opaque black flat-bottom 384-well plate (Corning, #3575) containing 2 μL test compound in 40% DMSO (4% final DMSO concentration). 10 μL of Quanta Red, Horseradish peroxidase (HRP), Choline Oxidase (CO), Rac-1-Palmitoyl-glycero-3-phosphocholine solution (final concentration 1:250 for Quanta Red, 0.5units/ml HRP, 0.5units/ml CO, 15 μM Rac-1-Palmitoyl-glycero-3-phosphocholine) in 1× assay buffer (as described previously) was added to each well to start the reaction and the plate was incubated at room temperature for 2 hours. The reaction was stopped after 2 hours with a 20 μL addition of Quanta Red Stop solution (1:20 dilution in distilled water). The above-described mixture with DMSO alone was used as a positive control whereas that with DMSO alone without ATX was taken as a negative control.
For each test compound, ten concentrations were measured covering a range of 6.1 nM to 120 μM to determine IC50 values. The top concentration was decreased to 1.2 μM when a test compound's IC50 value was evaluated in low nanomolar range. Fluorescence was determined in a BMG Labtech Pherastar plus plate reader ([…]). Data were analysed using Excel fit software. IC50 values were determined in duplicate.

In order of rising IC50:
1. O=C(NC1CC(=O)N(c2ccc(CN3CCOCC3)cc2)C1)c1nnc(CCc2ccc(Cl)cc2)s1 (centres unmarked) [Compound F128, 5-[2-(4-chlorophenyl)ethyl]-N-[1-[4-(morpholino-methyl)phenyl]-5-oxo-pyrrolidine-3-yl]-1,3,4-thiadiazole-2-carboxamide]  1 nM
2. O=C(NC1CC(=O)N(c2ccc(CN3CCCOCC3)cc2)C1)c1nnc(CCc2ccc(Cl)cc2)s1 (centres unmarked) [Compound F129, 5-[2-(4-chlorophenyl)ethyl]-N-[1-[4-(1,4-oxazepan-4-ylmethyl)phenyl]-5-oxo-pyrrolidin-3-yl]-1,3,4-thiadiazole-2-carboxamide]  2 nM
3. O=C(N[C@@H]1CC(=O)N(c2ccc(CN3CCOCC3)cc2)C1)c1nnc(CCc2ccc(Cl)cc2)s1 [Compound F130, 5-[2-(4-chlorophenyl)ethyl]-N-[(3R)-1-[4-(morpholinomethyl)phenyl]-5-oxo-pyrrolidine-3-yl]-1,3,4-thiadiazole-2-carboxamide]  2 nM
4. O=C(N[C@@H]1CCN(c2ccc(CN3CCOCC3)cc2)C1)c1nnc(CCc2ccc(Cl)cc2)s1 [Compound F131, 5-[2-(4-chloro-phenyl)-ethyl]-[1,3,4]thiadiazole-2-carboxylic acid [(R)-1-(4-morpholin-4-ylmethyl-phenyl)-pyrrolidin-3-yl]-amide hydrochloride]  2 nM
5. O=C(N[C@@H]1CC(=O)N(c2ccc(CN3CCCCC3)cc2)C1)c1cc(CCc2ccc(Cl)cc2)on1 [Compound F143, 5-[2-(4-chlorophenyl)ethyl]-N-[(3R)-5-oxo-1-[4-(1-piperidylmethyl)phenyl]pyrrolidin-3-yl]isoxazole-3-carboxamide]  2 nM
6. O=C(NC1CC(=O)N(c2ccc(CN3CCCCC3)cc2)C1)c1cc(CCc2ccc(Cl)cc2)on1 (centres unmarked) [Compound F144, 5-[2-(4-chlorophenyl)ethyl]-N-[5-oxo-1-[4-(1-piperidylmethyl)phenyl]pyrrolidin-3-yl]isoxazole-3-carboxamide]  2 nM
7. O=C(Nc1nnc(CCC2CCCCC2)s1)C1CC(=O)N(c2ccc(CN3CCOCC3)cc2)C1 (centres unmarked) [Compound F147, N-[5-(2-cyclohexylethyl)-1,3,4-thiadiazol-2-yl]-1-[4-(morpholinomethyl)phenyl]-5-oxo-pyrrolidine-3-carboxamide]  2 nM
8. CN(Cc1ccc(N2C[C@@H](C(=O)Nc3cc(CCc4ccc(Cl)cc4)on3)CC2=O)cc1)C1CCOC1 (stereo partly drawn) [Compound F152, (3S)-N-[5-[2-(4-chlorophenyl)ethyl]isoxazol-3-yl]-1-[4-[[methyl(tetrahydrofuran-3-yl)amino]methyl]phenyl]-5-oxo-pyrrolidine-3-carboxamide]  2 nM
9. O=C1CC(CNc2nnc(CCc3ccc(Cl)cc3)s2)CN1c1ccc(CN2CCOCC2)cc1 (centres unmarked) [Compound F153, 4-({5-[2-(4-Chloro-phenyl)-ethyl]-[1,3,4]thiadiazol-2-ylamino}-methyl)-1-(4-morpholin-4-ylmethyl-phenyl)-pyrrolidin-2-one]  2 nM
10. O=C(NC1CC(=O)N(c2ccc(CN3CCCCCC3)cc2)C1)c1nnc(CCc2ccc(Cl)cc2)s1 (centres unmarked) [Compound F134, N-[1-[4-(azepan-1-ylmethyl)phenyl]-5-oxo-pyrrolidin-3-yl]-5-[2-(4-chlorophenyl)ethyl]-1,3,4-thiadiazole-2-carboxamide]  3 nM
11. O=C(N[C@H]1CC(=O)N(c2ccc(CN3CCOCC3)cc2)C1)c1nnc(CCc2ccc(Cl)cc2)s1 [Compound F135, 5-[2-(4-chlorophenyl)ethyl]-N-[(3S)-1-[4-(morpholinomethyl)phenyl]-5-oxo-pyrrolidin-3-yl]-1,3,4-thiadiazole-2-carboxamide]  3 nM
12. O=C(N[C@H]1CC(=O)N(c2ccc(CN3CCCCC3)cc2)C1)c1cc(CCc2ccc(Cl)cc2)on1 [Compound F145, 5-[2-(4-chlorophenyl)ethyl]-N-[(3S)-5-oxo-1-[4-(1-piperidylmethyl)phenyl]pyrrolidin-3-yl]isoxazole-3-carboxamide]  3 nM
13. O=C(Nc1nnc(SCc2ccc(F)cc2)s1)C1CC(=O)N(c2ccc(CN3CCOCC3)cc2)C1 (centres unmarked) [Compound F154, 1-(4-morpholin-4-ylmethyl-phenyl)-5-oxo-pyrrolidine-3-carboxylic acid [5-(4-fluoro-benzylsulfanyl)-[1,3,4]thiadiazol-2-yl]-amide]  3 nM
14. CC1CCN(Cc2ccc(N3CC(NC(=O)c4nnc(CCc5ccc(Cl)cc5)s4)CC3=O)cc2)CC1 (centres unmarked) [Compound F136, 5-[2-(4-chlorophenyl)ethyl]-N-[1-[4-[(4-methyl-1-piperidyl)methyl]phenyl]-5-oxo-pyrrolidin-3-yl]-1,3,4-thiadiazole-2-carboxamide]  4 nM
15. CC1CCN(Cc2ccc(N3C[C@@H](NC(=O)c4nnc(CCc5ccc(Cl)cc5)s4)CC3=O)cc2)CC1 [Compound F137, 1-{4-[(S)-4-({5-[2-(4-chloro-phenyl)-ethyl]-[1,3,4]thiadiazole-2-carbonyl}-amino)-2-oxo-pyrrolidin-1-yl]-benzyl}-4-methyl-piperidine hydrochloride]  4 nM
16. CC1CCN(Cc2ccc(N3C[C@H](NC(=O)c4nnc(CCc5ccc(Cl)cc5)s4)CC3=O)cc2)CC1 [Compound F138, 5-[2-(4-chlorophenyl)ethyl]-N-[(3R)-1-[4-[(4-methyl-1-piperidyl)methyl]phenyl]-5-oxo-pyrrolidin-3-yl]-1,3,4-thiadiazole-2-carboxamide]  5 nM
17. O=C(NC1CC(=O)N(c2ccc(CN3CC4CC4C3)cc2)C1)c1nnc(CCc2ccc(Cl)cc2)s1 (centres unmarked) [Compound F140, N-[1-[4-(3-azabicyclo[3.1.0]hexan-3-ylmethyl)phenyl]-5-oxo-pyrrolidin-3-yl]-5-[2-(4-chlorophenyl)ethyl]-1,3,4-thiadiazole-2-carboxamide]  5 nM
18. CN(Cc1ccc(N2C[C@@H](C(=O)Nc3ccc(CCc4ccc(F)cc4)nn3)CC2=O)cc1)C1CCOC1 (stereo partly drawn) [Compound F148, (3S)-N-[6-[2-(4-fluorophenyl)ethyl]pyridazin-3-yl]-1-[4-[[methyl(tetrahydrofuran-3-yl)amino]methyl]phenyl]-5-oxo-pyrrolidine-3-carboxamide]  6 nM
19. O=C(Nc1ccc(CCc2ccc(F)cc2)nn1)C1CC(=O)N(c2ccc(CN3CCOCC3)cc2)C1 (centres unmarked) [Compound F149, 1-(4-morpholin-4-ylmethyl-phenyl)-5-oxo-pyrrolidine-3-carboxylic acid {6-[2-(4-fluoro-phenyl)-ethyl]-pyridazin-3-yl}-amide]  7 nM
20. CN(Cc1ccc(N2C[C@@H](C(=O)Nc3ccc(CCc4ccc(F)cc4)nn3)CC2=O)cc1)C1CCOCC1 [Compound F126, (3S)-N-[6-[2-(4-fluorophenyl)ethyl]pyridazin-3-yl]-1-[4-[[methyl(tetrahydropyran-4-yl)amino]methyl]phenyl]-5-oxo-pyrrolidine-3-carboxamide]  8 nM
21. COc1ccc(CCc2nnc(NC(=O)C3CC(=O)N(c4ccc(CN5CCOCC5)cc4)C3)s2)cc1 (centres unmarked) [Compound F150, N-[5-[2-(4-methoxyphenyl)ethyl]-1,3,4-thiadiazol-2-yl]-1-[4-(morpholinomethyl)phenyl]-5-oxo-pyrrolidine-3-carboxamide]  8 nM
22. CCN(Cc1ccc(N2CC(C(=O)Nc3nnc(CCc4ccc(Cl)cc4)s3)CC2=O)cc1)C(C)C (centres unmarked) [Compound F127, N-[5-[2-(4-chlorophenyl)ethyl]-1,3,4-thiadiazol-2-yl]-1-[4-[[ethyl(isopropyl)amino]methyl]phenyl]-5-oxo-pyrrolidine-3-carobxamide]  9 nM
23. COCCN(C)Cc1ccc(N2CC(NC(=O)c3nnc(CCc4ccc(Cl)cc4)s3)CC2=O)cc1 (centres unmarked) [Compound F142, 5-[2-(4-chlorophenyl)ethyl]-N-[1-[4-[[2-methoxyethyl(methyl)amino]methyl]phenyl]-5-oxo-pyrrolidin-3-yl]-1,3,4-thiadiazole-2-carboxamide]  9 nM
24. O=C(Nc1nnc(CCc2ccc(Cl)cc2)s1)C1CC(=O)N(c2ccc(CN3CCCC3)cc2)C1 (centres unmarked) [Compound F151, N-[5-[2-(4-chlorophenyl)ethyl]-1,3,4-thiadiazol-2-yl]-5-oxo-1-[4-(pyrrolidin-1-ylmethyl)phenyl] pyrrolidine-3-carboxamide]  9 nM
25. CN(Cc1ccc(N2C[C@@H](C(=O)Nc3ccc(CCc4ccc(F)cc4)nn3)CC2=O)cc1)C1COC1 [Compound F155, (3S)-N-[6-[2-(4-fluorophenyl)ethyl]pyridazin-3-yl]-1-[4-[[methyl(oxetan-3-yl)amino]methyl]phenyl]-5-oxo-pyrrolidine-3-carboxamide]  11 nM
26. O=C(Nc1nnc(CCc2ccc(Cl)cc2)s1)C1CC(=O)N(c2ccc(CN3CCCNCC3)cc2)C1 (centres unmarked) [Compound F156, 1-(4-[1,4]Diazepan-1-ylmethyl-phenyl)-5-oxo-pyrrolidine-3-carboxylic acid {5-[2-(4-chloro-phenyl)-ethyl]-[1,3,4]thiadiazol-2-yl}-amide; dihydrochloride]  14 nM
